Reference: US20100113430A1, “THIOXANTHENE DERIVATES USEFUL TO TREAT INFECTIOUS DISEASES” (BKG PHARMA APS, priority 2007, published 2010)
Values after ≈ are worked out from the molar mass of the structure shown.

Assays:
Format in all cases: cell-based
[1] = system: Candida albicans clinical isolate; assay: MIC (90% growth inhibition), broth microdilution NCCLS M27-A, Candida albicans; settings: strain 1. Candida albicans FR (fluconazole resistant)
Procedure: (§1) Cell growth was tested using the Minimal Inhibitory Concentration (MIC) susceptibility tests by use of the microdilution broth method in accordance to the NCCLS Guidelines (NCCLS Guidelines, Methods for Dilution Antimicrobial Susceptibility Tests for Bacteria That Grow Aerobically; Approved Standard, Sixth Edition, Volume 23; Number 2). The minimum inhibitory concentration (MIC), is defined ad the lowest concentration of drug which inhibits growth of the test organism, in the sense that no visible growth is detected (total inhibition of growth). In example 2 MIC of the compounds used on fungal microorganisms was determined from the IC90 measurements according to NCCLS Guidelines.
The antibacterial effect of demethylated/dealkylated phenothiazine or thioxanthene compounds were studied by growth inhibition studies exposing cells to 0-32 μg/ml of drug. Each experiment was repeated in triplicate. MIC values represent the mean values of two separate triplicate experiments.
(§2) 4 clinical isolates of Candida sp. (including 3 fluconazole resistant isolates) were subcultured for 24 h on Sabouraud glucose agar before susceptibility testing. Broth microdilution tests were performed according to NCCLS document M27-A (Ref: National Committee for Clinical Laboratory Standards. (1997). Reference Method for Broth Dilution Antifungal Susceptibility Testing of Yeasts: Approved Standard M27-A. NCCLS, Wayne, Pa.). Microtitre plates were read spectrophotometrically at 530 nm, after mixing the wells by pipetting to resuspend yeast sediments. In this experiment, the MIC was defined as the lowest drug dilution resulting in 90% growth inhibition.

[2] = system: Fluconazole Resistant Candida albicans clinical isolate; assay: MIC (80% growth inhibition), broth microdilution NCCLS M27-A, fluconazole resistant Candida albicans; settings: fluconazole resistant Candida albicans; MIC = 80% growth inhibition
Procedure: The antimicrobial effect of N-dealkyl-trans-clopenthixol and N-dealkyl-trans-flupenthixol was studied by exposing cells to 0-8 μg/ml of the compounds in two-fold dilutions. Each experiment was repeated in triple duplicate. MIC values represent the mean values of two separate experiments.
Clinical Isolate of A Fluconazole Resistant Candida albicans from a Patient with Candidemia.
The isolates were subcultured for 24 h on Sabouraud glucose agar before susceptibility testing. Broth microdilution tests were performed according to NCCLS document M27-A (Ref: National Commitee for Clinical Laboratory Standards. (1997). Reference Method for Broth Dilution Antifungal Susceptibility Testing of Yeasts: Approved Standard M27-A. NCCLS, Wayne, Pa.)
Microtitre plates were read spectrophotometrically at 530 nm, after mixing the wells by pipetting to resuspend yeast sediments. The MIC was defined as the lowest drug dilution resulting in 80% growth inhibition.

[3] = system: Staphylococci, Micrococci. Including MRSA; assay: MIC/IC90 broad spectrum, Staphylococci and Micrococci; settings: 30 strains, 20 resistant (20 MRSA)
Procedure: as §1
(§3) A log phase culture of bacteria was diluted with fresh pre-warmed Mueller-Hinton medium and adjusted to a defined OD at 600 nm in order to give a final concentration of 1×10^4-5 bacteria/ml medium. The bacterial culture was transferred to microtiter-plates and culture was added to each well. Drug was added to the bacterial culture in the wells as two-fold dilution series of drug in order to give final concentrations ranging from 0.03 to 128 μg/ml. Trays were incubated at 37° C. by shaking in a robot analyzer, PowerWavex, software KC^4′ Kebo.Lab, Copenhagen, for 16 h and optical densities were measured at 600 nm during the incubation time in order to record growth curves. Wells containing bacterial culture without drug were used as controls to ensure correct inoculum size and bacterial growth during the incubation. Cultures were tested in order to detect contaminations. Each experiment was repeated in triplicate. MIC values represent the mean values of two separate triplicate experiments. Intra- and interassay variation was <5%.
(§4) Inhibition 90 (IC90) is defined as: OD responding a 90% growth inhibition.
(§5) A broad spectrum of bacteria were cultured and assayed as described above for susceptibility towards N-dealkyl-clopenthixol.

uninfected MT4 cells = assay: Cytotoxic effect in uninfected MT4 cultures; settings: six days
Procedure: Compounds were examined for possible antiviral activity against strain IIIB of HIV-1 using MT4 cells as target cells. MT4 cells were incubated with virus (0.005 MOI) and growth medium containing the test dilutions of compound(s) for six days in parallel with virus-infected and uninfected control cultures without compound added. Expression of HIV in the cultures was indirectly quantified using the MTT assay as previously described. Compounds mediating less than 30% reduction of HIV expression were considered without biological activity. Compounds were tested in parallel for cytotoxic effect in uninfected MT4 cultures containing the test dilutions of compound as described above. Cultures for test of both antiviral activity and cytotoxic effect were set up in triple duplicates, 200 ml per culture in micro titre plates. A 30% inhibition of cell growth relative to control cultures was considered significant. The 50% inhibitory concentration was determined by interpolation from the plots of percent inhibition versus concentration of compound. CC50 is defined as the inhibitory concentration that reduces cellular growth or viability of uninfected cells by 50%.

Streptococci = assay: MIC/IC90 broad spectrum, Streptococci; settings: 30 strains, 20 resistant
Procedure: as §1, §3, §4, §5

[4] = system: Candida glabrata clinical isolates; assay: MIC (90% growth inhibition), broth microdilution NCCLS M27-A, Candida glabrata
Procedure: as §1, with “Guidelines. […]” for “Guidelines.”
as §2

[5] = system: multiresistant clinical isolate of Staphylococcus epidermidis; assay: MIC, microdilution broth method (NCCLS), Staphylococcus epidermidis
Procedure: as §1
as §3, with “Drug was added to the bacterial culture in the wells as two-fold dilution series of drug in order to give final concentrations ranging from 0.03 to 128 μg/ml.” left out, “triplicate.” for “triplicate. MIC values represent the mean values of two separate triplicate experiments. Intra- and interassay variation was <5%.”
A clinically relevant isolate of Staphylococcus epidermidis was cultured and assayed as described above for susceptibility towards the compounds listed in table 1.

Clc1ccc2c(c1)/C(=C/CCN1CCNCC1)c1ccccc1S2 [N-dealkyl-trans-clopenthixol, trans-1-(3-(2-chloro-thioxanthen-9-ylidene)propyl)piperazine]
MIC [1]: 1 µg/mL (≈ 2.8 µM)
MIC [2]: 3 µg/mL (≈ 8.41 µM)
IC90 (mean) [3]: 0.5 µg/mL (≈ 1.4 µM)
MIC (mean) [3]: 1 µg/mL (≈ 2.8 µM)
MIC range [3]: 0.5 to 2 µg/mL
CC50 (uninfected MT4 cells): > 3000 nM
IC90 (mean) (Streptococci): 0.5 µg/mL (≈ 1.4 µM)
MIC (mean) (Streptococci): 1 µg/mL (≈ 2.8 µM)
MIC range (Streptococci): 0.5 to 2 µg/mL
MIC ([4]; strain 2. Candida glabrata FR (fluconazole resistant)): 1 µg/mL (≈ 2.8 µM)
MIC ([4]; strain 4. Candida glabrata FR (fluconazole resistant)): 0.5 µg/mL (≈ 1.4 µM)
MIC ([4]; strain 5. Candida glabrata): 0.5 µg/mL (≈ 1.4 µM)
MIC ([5]; Staphylococcus epidermidis multiresistant isolate, Example 6, isomers alone and 1:1 mixture): 0.5 µg/mL (≈ 1.4 µM)
MIC ([5]; multiresistant clinical isolate of Staphylococcus epidermidis, Example 1): 0.5 µg/mL (≈ 1.4 µM)
